{"source": "patent US6846845B2", "about": "“Heat shock protein inducer” (Eisai Co., Ltd., priority 2002, dated 2005)", "type_in_all_cases": "in vivo, rat", "key": {"HSP70": {"test_system": "HSP70", "experiment": "HSP70 induction in the heart after oral administration (Western blotting), Example 1", "description": "Male Sprague-Dawley rats (220-250 g) were anesthetized with pentobarbital (20 mg/kg, i.p.). They were subjected to whole-body hyperthermia by soaking for 10 minutes in a bath in which the water temperature was maintained at 43° C. (Heat Stress Group), with their heads on pillows to avoid aspiration of water. rectal temperatures were measured as body temperatures rose throughout the whole-body hyperthermia.\n(§1) An emulsion of 100% by weight of geranylgeranylacetone (GGA) with 5% by weight of gum arabic and 0.008% by weight of tocopherol was given orally to the rats described above. The oral dosages were 50 mg/kg, 100 mg/kg, 200 mg/kg and 400 mg/kg (GGA groups). […] The vehicle was administered orally to the Control Group.\nTo examine the time-dependent expression of HSP70, rats were killed by deep anesthesia with pentobarbital (50 mg/kg, i.v.) 6, 12, 24 and 48 hours after administration of the GGA or vehicle or 6, 12, 24 and 48 hours after heat stress.\n(§2) Next, the hearts were removed from the killed rats and frozen in liquid nitrogen.\n(§3) Western blotting was then performed (Maloyan A, Palmon A, Horowitz M. Heat acclimation increases the basal HSP70 level and alters its production dynamics during heat stress. Am J Physiol 1999; 276:R1506-R1515). The frozen hearts were homogenized with SDS (sodium dodecyl sulfate) buffer, centrifuged and boiled.\n(§4) The total protein concentration of the myocardium was quantified by the Bradford method (Bradford M M. A rapid and sensitive method for quantitation of microgram quantities of protein utilizing the principle of protein-dye binding. Anal Biochem 1976; 72:248-254). The prepared hearts were then diluted in electrolyte buffer. Total protein in each heart was subjected to electrophoresis on 8.5% SDS-Polyacrylamide gel (SDS-PAGE), and transferred to a PVDF (polyvinylidene fluoride) membrane. After blocking with 0.5% nonfat milk, the PVDF membranes were incubated with antibodies. The proteins were detected by exposing the ECL cells with Hyperfilm (Amersham Pharmacia, Buckinghamshire, UK). Based on this, the amount of proteins on the immunoblots was quantified using National Institutes of Health (NIH) imaging software."}, "HSP27": {"test_system": "HSP27", "experiment": "HSP27 induction in the heart after oral administration (Western blotting)", "conditions": "oral 200 mg/kg, 24 hours after administration, FIG. 3(A)", "description": "as §1, §2, §3\nas §4, with “Total protein in each heart was subjected to electrophoresis on 8.5% SDS-Polyacrylamide gel (SDS-PAGE), and transferred to a PVDF (polyvinylidene fluoride) membrane. After blocking with 0.5% nonfat milk, the PVDF membranes were incubated with antibodies.” left out, “software. […]” for “software.”"}, "[1]": {"test_system": "heat shock factor 1 (HSF1)", "experiment": "HSF1 phosphorylation and translocation in cytosolic and nuclear heart fractions (Western immunoblotting)", "conditions": "24 h after GGA 200 mg/kg oral or vehicle; chelerythrine 5 mg/kg i.v. pretreatment, FIG. 9", "description": "Male Sprague-Dawley rats (220-250 g) were used. GGA, as an emulsion with 5% gum arabic and 0.008% tocopherol, was given orally at a dose of 200 mg/kg. Rats were classified into 4 groups. FIG. 7 is a diagrammatic representation of experimental protocol. […] Twenty-four hours after oral administration of GGA or vehicle, rats were anesthetized (sodium pentobarbital, 50 mg/kg IP) and heparinized (500 IU/kg IP). Hearts were excised, immediately frozen in liquid nitrogen, and stored at −70° C. until use for Western blot analysis (n=4 for each group). […]\nTo analyze the expression of HSP70, the frozen heart samples were homogenized with SDS sample buffer (pH 6.8, 20% glycerol, 6% SDS, 0.12M Tris), centrifuged and boiled (Maloyan A, Palmon A, Horowitz M. Heat acclimation increases the basal HSP70 level and alters its production dynamics during heat stress. Am J Physiol. 1999; 276:R1506-R1515.). […] The total protein concentration of heart was quantified by the Bradford method (Bradford MM. A rapid and sensitive method for quantitation of microgram quantities of protein utilizing the principle of protein-dye binding. Anal. Biochem. 1976;72:248-254). […] The proteins were detected by ECL with exposure to Hyperfilm (Amersham Pharmacia). The amount of protein on the immunoblots was quantified using National Institutes of Health image software. […]"}, "PKCδ": {"test_system": "PKCδ", "experiment": "Translocation of PKCδ in particulate and cytosolic heart fractions (Western immunoblotting)", "conditions": "24 h after GGA 200 mg/kg oral or vehicle; chelerythrine 5 mg/kg i.v. pretreatment, FIG. 10"}, "[2]": {"conditions": "oral, 24 hours after administration, FIG. 2"}}, "data": [{"molecule": "CC(=O)CCC=C(C)CCC=C(C)CCC=C(C)CCC=C(C)C", "note": "[GGA, 6, 10, 14, 18-tetramethyl-5,9, 13, 17-nonadecatetraen-2-one]", "values": [{"measurement": "detected (induced) amount of HSP70 in the heart versus dosage", "setting": "HSP70; oral 0-400 mg/kg, hearts removed 24 hours after administration, FIG. 2", "value": "increased as the dosage increased"}, {"measurement": "detected amount of HSP70 in the heart after 48 hours", "setting": "HSP70; oral 200 mg/kg, 48 hours after administration, FIG. 1", "value": "decreased"}, {"measurement": "time at which the detected (induced) amount of HSP70 peaked", "setting": "HSP70; oral 200 mg/kg, FIG. 1", "value": 24, "unit": "h"}, {"measurement": "time from which HSP70 was detected in the heart", "setting": "HSP70; oral 200 mg/kg, FIG. 1", "value": "about 6 hours"}, {"measurement": "detected amount of HSP70 above 400 mg/kg", "setting": "HSP70; [2]", "value": "No increase in detected amount was seen"}, {"measurement": "dosage at which HSP70 induction peaked", "setting": "HSP70; [2]", "value": 200, "unit": "mg/kg"}, {"measurement": "HSP27 expression versus vehicle", "setting": "HSP27", "value": "no obvious difference"}, {"measurement": "amount of phosphorylated form of HSF1 in the nuclear fraction", "setting": "[1]", "value": "increased"}, {"measurement": "PKCδ in the particulate fraction / particulate/cytosol ratio versus CNT group", "setting": "PKCδ", "value": "significant increase"}]}]}
